Experiment [1] deals with T1, human α1 glycine receptor WT (Homo sapiens, UniProt P23415).
T1 sequence (P23415 29-449 isoform P23415-2 limits assumed): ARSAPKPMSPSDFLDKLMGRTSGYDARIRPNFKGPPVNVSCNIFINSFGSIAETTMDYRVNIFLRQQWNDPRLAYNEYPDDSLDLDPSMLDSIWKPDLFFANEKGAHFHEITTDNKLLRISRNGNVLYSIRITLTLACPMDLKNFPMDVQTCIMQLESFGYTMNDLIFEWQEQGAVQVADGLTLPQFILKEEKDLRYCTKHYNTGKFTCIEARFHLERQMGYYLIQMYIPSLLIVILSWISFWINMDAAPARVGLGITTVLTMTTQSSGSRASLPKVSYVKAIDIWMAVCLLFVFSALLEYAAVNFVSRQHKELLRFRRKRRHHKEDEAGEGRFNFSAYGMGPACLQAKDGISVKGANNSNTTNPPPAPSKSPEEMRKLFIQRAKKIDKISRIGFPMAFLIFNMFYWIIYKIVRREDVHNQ
Type of experiment: cell-based. Conditions: for average current elicited: WT GlyR, 10 mM glycine or 100 mM taurine; for Imax (% of max glycine): α1 WT, percentage of maximal glycine current ± S.E.M.

The target in experiment [2] is T2, D97R α1 GlyR (Homo sapiens, UniProt P23415, D125R).
T2 sequence (P23415 29-449 isoform P23415-2 D125R limits assumed): T1 sequence (P23415 29-449 isoform P23415-2 limits assumed) with D97R
It counts as cell-based. Conditions: for average current elicited: 10 mM glycine or 100 mM taurine; for increase of maximal currents by the D97R mutation: D97R versus WT; for Imax (% of max glycine): D97R, percentage of maximal glycine current ± S.E.M.

A further experiment addresses T3, D97E α1 GlyR (Homo sapiens, UniProt P23415, D125E).
T3 sequence (P23415 29-449 isoform P23415-2 D125E limits assumed): T1 sequence (P23415 29-449 isoform P23415-2 limits assumed) with D97E
It counts as cell-based. Particulars: for average current elicited: D97E α1 GlyR, 10 mM glycine or 100 mM taurine.

In experiment [3] the target is T2, D97R α1 GlyR. It counts as cell-based. Particulars: for conductance of the openings: in the presence of taurine or glycine; for Popen of clusters: saturating concentration (100 mM taurine, 10 mM glycine), 2.5 mM tricine.
The next experiment relates to D97A α1 GlyR. Conditions: for Popen of clusters: D97A, saturating concentration (100 mM taurine, 10 mM glycine), 2.5 mM tricine.
The subject of the next experiment is D97 mutant GlyR. Conditions: saturating concentrations of glycine or taurine.
Another experiment deals with wildtype α1 GlyR. Type of experiment: cell-based, human.

Changes are numbered by the printed parent chain.

For `NCC(=O)O` [Glycine], the average current elicited in experiment [1] is 27.6 ± 2.9 μA; on D97R α1 GlyR [2] (D97R α1 GlyR), 3.68 ± 0.37 μA; on D97E α1 GlyR it was 11.9 ± 2.9 μA. For the same compound, the “conductance of the openings” value at D97R α1 GlyR [3] is listed as “approximately 75 pS”. The Popen of clusters stood at 0.990 ± 0.001 at D97R α1 GlyR [3] and 0.938 ± 0.044 with D97A α1 GlyR. The “total current in patch” value in the experiment on D97A α1 GlyR (D97A multi-channel patch, sample tracing, 10 mM glycine) amounted to 84 pA. Further, the whole-cell current in the experiment on D97 mutant GlyR was 3000–5000 nA.
`NCCS(=O)(=O)O` [Taurine] displayed an EC50 in experiment [1] (EC50, α1 WT, whole-cell, oocytes, 2.5 mM tricine) of 1960 µM. The average current elicited in experiment [1] came out at 11.8 ± 1.7 μA; on D97R α1 GlyR [2] (D97R α1 GlyR) it was 3.56 ± 0.36 μA; at D97E α1 GlyR it was 11.4 ± 2.9 μA. For the same compound, the “Imax (% of max glycine)” value in experiment [1] was found to be 41 ± 4.5%; on D97E α1 GlyR (D97E, percentage of maximal glycine current ± S.E.M.), 95.6 ± 4.7%. For the same compound, the “maximal taurine response versus maximal glycine response” value on D97R α1 GlyR [2] (D97R GlyR, 100 mM taurine vs 10 mM glycine) is given as “approximately equal”. The “greater current than glycine” value at D97R α1 GlyR [2] (D97R α1 GlyR, taurine and glycine both at 300 mM) worked out at 12.7 ± 7.1%. Moreover, the “conductance of the openings” value on D97R α1 GlyR [3] is “approximately 75 pS”. The Popen of clusters on D97R α1 GlyR [3] stood at 0.990 ± 0.002; in the experiment with D97A α1 GlyR, 0.987 ± 0.003. In the experiment with wildtype α1 GlyR, the Popen is 0.62 ± 0.06. Besides, the whole-cell current in the experiment with D97 mutant GlyR is on record as 3000–5000 nA.
Take `CC(N)CC(=O)O` (stereo not drawn) [β-ABA, β-aminobutyric acid]: the “Imax (% of max glycine)” value in experiment [1] came to 17.3 ± 9.2%; at D97R α1 GlyR [2], 89%. For the same compound, the “increase of maximal currents by the D97R mutation” value at D97R α1 GlyR [2] was “four- to five-fold”.
On to `CC(CN)C(=O)O` (stereo not drawn) [β-AIBA, β-aminoisobutyric acid], for which, in experiment [1], the “Imax (% of max glycine)” value amounted to 15.3 ± 3.3%. Moreover, on D97R α1 GlyR [2], the “increase of maximal currents by the D97R mutation” value is listed as “four- to five-fold” and the “Imax (% of max glycine)” value amounted to 61%.

Source of the values: article PMC5303145 (Brain research, 2016).
